# Data taken from ChEMBL document CHEMBL1201862, “PubChem BioAssay data set” (2004).
# Calls of active or inactive are those of the source.
# Key:
# [1] = target: T1, G-protein coupled receptor 35 (Homo sapiens, UniProt Q9HC97); assay: SAR analysis of Agonists of the GPR35 Receptor using an Image-Based Assay - Set 3. [Related pubchem assays (depositor defined):AID1961, AID1965]; format: functional
# Cannabinoid receptor 2 [2] = target: T2, Cannabinoid receptor 2 (Homo sapiens, UniProt P34972); assay: SAR analysis of agonists of the Cannabinoid Receptor 2 using an Image-Based Assay - Set 2. [Related pubchem assays (depositor defined):AID1961, AID1965]; format: functional
# Cannabinoid receptor 1 [3] = target: T3, Cannabinoid receptor 1 (Homo sapiens, UniProt P21554); assay: SAR analysis of antagonists of the Cannabinoid Receptor 1 using an Image-Based Assay - Set 3. [Related pubchem assays (depositor defined):AID1961, AID1965]; format: functional
# Cannabinoid receptor 1 [4] = target: T3, Cannabinoid receptor 1; assay: SAR analysis of agonists of the Cannabinoid Receptor 1 using an Image-Based Assay - Set 3. [Related pubchem assays (depositor defined):AID1961, AID1965]; format: functional
# [5] = target: G-protein coupled receptor 55 (Homo sapiens, UniProt Q9Y2T6); assay: SAR analysis of selective Agonists of GPR55 using an Image-Based Assay - Set 2. [Related pubchem assays (depositor defined):AID1961, AID1965]; format: functional
# [6] = target: T1, G-protein coupled receptor 35; assay: SAR analysis of Antagonists of the GPR35 Receptor using an Image-Based Assay - Set 4. [Related pubchem assays (depositor defined):[…]]; format: functional
# Cannabinoid receptor 2 [7] = target: T2, Cannabinoid receptor 2; assay: SAR analysis of antagonists of the Cannabinoid Receptor 2 using an Image-Based Assay - Set 2. [Related pubchem assays (depositor defined):AID1961, AID1965]; format: functional
# [8] = target: T4, E3 ubiquitin-protein ligase XIAP (Homo sapiens, UniProt P98170); assay: Chemical Antagonists of IAP-family anti-apoptotic proteins confirmation. [Related pubchem assays (depositor defined):AID1018, AID1513, AID1514, AID1638, AID1749, AID1750, AID488957, AID488963]
# [9] = target: T4, E3 ubiquitin-protein ligase XIAP; assay: Counter Screen using XIAP-Bir3 of the Chemical Antagonists of IAP-family anti-apoptotic proteins confirmation assay. [Related pubchem assays (depositor defined):AID1018, AID1449, AID1513, AID1638, AID1749, AID1750, AID488957, AID488963]
# Troponin, cardiac muscle = Troponin, cardiac muscle (Homo sapiens, UniProt P19429+P45379+P63316); assay: Fluorescence-based biochemical high throughput dose response assay for activators of the calcium sensitivity of cardiac Regulated Thin Filaments (RTF). [Related pubchem assays (depositor defined):AID493008, AID493018, AID504382, AID504383]; format: protein-complex assay
# INS1 = assay: INS-1E survival protection against cytokine death – cell-based, luminescence, retest, dose response (AID 449756); format: functional; settings: Rattus norvegicus;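 note: cell death triggered by IL-1 beta plus TNF-alpha plus IFN-gamma mixture; protective hits raise ATP signal compared with cytokine alone wells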
# Streptococcus = assay: GAS UMAA2166 growth inhibition – luminescence, BacTiterGlo, counter-screen for streptokinase expression inhibitor project, dose response (AID 1915); format: functional, organism-based;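 note: potency for reduction of bacterial viability or growth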
# [10] = system: Streptococcus sp. 'group A'; assay: Streptococcus pyogenes SK(-)GAS viability under kanamycin – luminescence, BacTiterGlo, confirmation, counter-screen for streptokinase expression inhibitor project, dose response (AID 1900); format: functional, organism-based
# [11] = target: Heat shock protein HSP 90-alpha (Homo sapiens, UniProt P07900); format: functional, organism-based
# [12] = target: Peroxisome proliferator-activated receptor gamma (Homo sapiens, UniProt P37231); assay: PPARg transcriptional activation, reporter cells – cell-based, luminescence, assay provider, dose response (AID 504447); format: functional
# HEK293 [13] = assay: cells; format: functional, cell-based; settings: Homo sapiens
# HEK293 [14] = assay: NOD2 signaling inhibitors in MDP-stimulated cells, cell-based, uHTS, luminescence (AID 2001); format: functional; settings: Homo sapiens
# HEK293 [15] = assay: inhibition of NOD1-driven NF-kB reporter – cell-based, luminescence, uHTS, primary screen (AID 1578); format: functional; settings: Homo sapiens
# HEK293 [16] = assay: cells; format: functional, cell-based; settings: Homo sapiens; remark: listed apart in the source
# [17] = target: T5, Heat shock factor protein 1 (Mus musculus, UniProt P38532); assay: decrease of HSF1-responsive luciferase luminescence – cell-based, NIH3T3, dose retest, confirmation (AID 2382); format: functional;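 note: NIH3T3 fibroblasts with HSF1-driven luciferase reporter stressed by proteasome inhibitor MG132; luminescence from HSF1-driven luciferase expression after 8 hours of MG132 stress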
# T5 sequence (P38532 whole entry): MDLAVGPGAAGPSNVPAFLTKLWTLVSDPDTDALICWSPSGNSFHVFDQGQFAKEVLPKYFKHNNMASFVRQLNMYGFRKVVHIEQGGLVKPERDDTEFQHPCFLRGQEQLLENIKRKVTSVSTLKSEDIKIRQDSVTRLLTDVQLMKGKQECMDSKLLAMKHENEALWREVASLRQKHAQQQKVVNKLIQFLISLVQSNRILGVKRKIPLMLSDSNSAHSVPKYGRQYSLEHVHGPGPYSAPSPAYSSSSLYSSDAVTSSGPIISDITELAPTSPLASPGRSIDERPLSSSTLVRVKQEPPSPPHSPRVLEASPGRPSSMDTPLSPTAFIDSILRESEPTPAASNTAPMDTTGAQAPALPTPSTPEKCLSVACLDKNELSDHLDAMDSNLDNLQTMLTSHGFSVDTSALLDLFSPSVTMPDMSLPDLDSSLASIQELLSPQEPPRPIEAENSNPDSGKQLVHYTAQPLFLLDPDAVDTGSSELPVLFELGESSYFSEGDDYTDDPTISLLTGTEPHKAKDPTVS
# HEK293 [18] = assay: cells; format: functional, cell-based; settings: Homo sapiens; remark: listed apart in the source
# [19] = target: Nucleotide-binding oligomerization domain-containing protein 2 (Homo sapiens, UniProt Q9HC29); assay: inhibition of NOD2-driven NF-kB reporter – cell-based, luminescence, uHTS, HEK293 (AID 1566); format: functional
structure (smiles),measurement,setting,value
COc1ccc(S(=O)(=O)N2CCOCC2)cc1NC(=O)c1ccc(OCC(C)C)c(OC)c1,EC50,[1],> 32 µM (inactive)
same,EC50,Cannabinoid receptor 2 [2],> 32 µM (inactive)
same,IC50,Cannabinoid receptor 1 [3],> 32 µM (inactive)
same,EC50,Cannabinoid receptor 1 [4],> 32 µM (inactive)
same,EC50,[5],4.56 µM (active)
same,IC50,[6],> 32 µM (inactive)
same,IC50,Cannabinoid receptor 2 [7],> 32 µM (inactive)
O=C(O)C(c1ccc(F)cc1)N1Cc2ccccc2C1=O (configuration not stated),IC50,[8],> 200 µM (inactive)
same,IC50,[9],> 200 µM (inactive)
O=C(N/N=C/c1sc2ccccc2c1O)c1ccccc1,EC50,"Troponin, cardiac muscle",3.91 µM (active)
same,AC50,INS1,0.864 µM (active)
same,EC50,Streptococcus,10.1 µM (active)
same,EC50,[10],0.702 µM (active)
same,AC50,[11],1.02 µM (active)
COc1cccc(Cn2nc3c4cc(F)ccc4n(Cc4ccc(F)cc4)cc-3c2=O)c1,EC50,[12],0.502 µM (active)
Cc1ccc(C(=O)Nc2sc(C)c(-c3ccccc3)c2C(N)=O)cc1[N+](=O)[O-],IC50,HEK293 [13],> 20 µM (inactive)
same,IC50,HEK293 [14],> 20 µM (inactive)
same,EC50,HEK293 [15],> 20 µM (inactive)
same,IC50,HEK293 [16],< 0.312 µM (active)
same,EC50,[17],< 0.16 µM (active)
same,IC50,HEK293 [18],> 20 µM (inactive)
same,EC50,[19],< 0.31 µM (inactive)
